Source: PMC4747383, “Design of a peptidic inhibitor that targets the dimer interface of a prototypic galectin” (Oncotarget, 2015)
“Also recorded” adds a separate entry of the source. No end group written: not given here.

How the values were obtained:
Assay type in all cases: cell-based
[1] = tested on: Jurkat T cells; experiment: Apoptosis/toxicity of peptide alone on Jurkat T cells; conditions: for apoptosis induced by peptide alone in Jurkat T cells: 4 h at 37°C, Annexin V/PI two-color flow cytometry, three independent experiments
Protocol: (§1) Apoptosis was measured by flow cytometry using FITC-labeled Annexin V (Biolegend, San Diego, CA, USA) and propidium iodide (PI). Briefly, the corresponding dilutions of recombinant hGal-7 and hGal-7(129–135) peptides were pre-incubated for 1 h at 4°C in serum free RPMI 1640 medium. 2.5 × 10^5 Jurkat cells were then harvested in the same medium and incubated with their corresponding dilutions at 37°C for 4 h. Cells were washed once in PBS and once in binding buffer (0.01 M HEPES, 0.14 M NaCl, 2.5 mM CaCl2, pH 7.4). Cells were then incubated for 15 min with Annexin V in the dark at room temperature. A total of 400 μL of binding buffer containing 0.25 μg/mL propidium iodide was added to the cells before analysis by flow cytometry.
Supplementary Figure S4: Inability of the control peptide (PACAP) to induce apoptosis on Jurkat T cells. Jurkat T cells wee incubated 4 h at 37°C with increasing concentrations of the control peptide PACAP before two-color flow cytometric analysis. On the left histograms, cells in the lower right quadrant are representative of annexin V-positive/PI-negative, or early apoptotic cells. Cells in the upper right quadrant indicate annexin V-positive/PI-positive, or late apoptotic cells. The right histograms show the percentages of annexin V-positive Jurkat T cells obtained by adding the percentages of cells found in the lower and upper right quadrants. Results are representative of three independent experiments. Error bars represent standard deviation.
(also on this page, place not known: www.impactjournals.com/oncotarget/ Oncotarget, Materials 2015 Supplementary) […]

[2] = tested on: Jurkat T cells; experiment: hGal-7-induced apoptosis of Jurkat T cells, Annexin V/PI flow cytometry; conditions: hGal-7 and peptide pre-incubated 1 h at 4°C, cells 4 h at 37°C, serum free RPMI 1640, three independent experiments
Protocol: (§2) Apoptosis was measured by Western blot analysis of PARP-1 cleavage. The PACAP28–38 was used as a control. β-actin was used as a loading control. B. Flow cytometric analysis of Jurkat T cells with stained Annexin V (FL1) and propidium iodide-PI (FL3) following binding of recombinant hGal-7 with or without hGal-7(129–135). Cells in the lower right quadrant are representative of annexin V-positive/PI-negative, or early apoptotic cells. Cells in the upper right quadrant indicate annexin V-positive/PI-positive, or late apoptotic cells. C. Histogram showing the percentages of annexin V-positive Jurkat T cells obtained by adding the percentages of cells found in the lower and upper right quadrants. Results are representative of three independent experiments. Error bars represent standard deviation.
as §1

[3] = tested on: Jurkat T cells; experiment: hGal-7-induced apoptosis of Jurkat T cells, PARP-1 cleavage (Western blot); conditions: hGal-7 pre-incubated with peptide, then Jurkat cells 4 h at 37°C, serum-free RPMI, Supplementary Fig. S3: peptide 200 μM
Protocol: as §2
For the apoptosis tests, whole-cell extracts were homogenized and resuspended in RIPA buffer (Thermo Fisher Scientific, Rockford, IL, USA) containing protease inhibitors (Roche, Laval, QC, Canada). Equal amounts of whole-cell extracts (25 μg) were separated on SDS-PAGE and transferred onto nitrocellulose membranes (Bio-Rad Laboratories). The membranes were first blocked with 5% milk [w/v] in TBS/0.5% Tween 20 [v/v] for 1 h at room temperature and subsequently blotted overnight in a solution of TBS containing 3% BSA [w/v] and 0.5% Tween 20 [v/v]. The following antibodies were used: a rabbit anti-poly-(ADP-ribose) polymerase (PARP)-1 (p25) polyclonal antibody (1:5000; Epitomics, Burlingame, CA, USA) and a mouse anti-β-actin (1:10000; Sigma-Aldrich, St. Louis, MO, USA). Secondary antibodies consisted of horseradish peroxidase-conjugated donkey anti-rabbit (GE Healthcare, Buckinghamshire, England) and sheep anti-mouse (GE Healthcare) IgG. Detection was performed using the enhanced chemiluminescence method (GE Healthcare). […]
concentrations of recombinant human gaI-7 were pre-incubated with the hGaI-7129–135 (200 μM) prior to its addition to A. Jurkat T cells or B. PBMCs. Apoptosis wa, measured after 4 h at 37°C in serum·free conditions. […]

Substance | apoptosis induced by peptide alone in Jurkat T cells [1] | hGal-7-induced apoptosis of Jurkat T cells (Annexin V/PI) [2] | hGal-7-induced apoptosis of Jurkat T cells (Annexin V/PI) ([2]; listed as hGal-7 (129–135)) | inhibition of hGal-7-induced apoptosis in Jurkat T cells (PARP-1 cleavage) [3] | inhibition of hGal-7-induced apoptosis in Jurkat T cells (PARP-1 cleavage) ([3]; listed as hGaI-7129–135) | toxicity of peptide alone on Jurkat T cells [1] | apoptosis induced by peptide alone in Jurkat T cells ([1]; listed as PACAP)
H-LDSVRIP-NH2 [hGal-7(129–135), peptide corresponding to hGal-7 segment between residues 129–135] | did not induce apoptosis in Jurkat T cells | This effect on apoptosis was confirmed by flow cytomtery | Apoptotic levels of Jurkat T cells induced by hGal-7 were decreased | inhibited the ability of hGal-7 to induce apoptosis in Jurkat T cells; also recorded: dose-dependent | decreases gaI-7-induced apoptosis | – | –
PACAP(28–38): an inactive fragment of the human Pituitary Adenylate Cyclase-Activating Polypeptide (PACAP) (GKRYKQRVKNK-NH2; ends and bridges not checked; UniProt P18509 159-169, looked up, fragment) | did not induce apoptosis in Jurkat T cells; also recorded: does not induce apoptosis | a slight increase in apoptosis is observed | – | No such effect was observed with the control peptide | – | did not display any toxicity on Jurkat T cells alone; also recorded: minimal toxicity on the cell line | Inability
